Results as given in PMC7566913, “Dual Gene Delivery Reagents From Antiproliferative Alkylphospholipids for Combined Antitumor Therapy” (Frontiers in Chemistry, 2020).
Several values for one entry are separate records, joined by “and”; a condition that tells them apart may be missing. Equal entries are not always repeated. Where two headings read alike, the source gives them in different places.

Experiments:
16HBE cells [1] = tested on: 16HBE cells; parameters: method as in Gaillard et al., 2019; conditions: 24 h at 37°C, MTT assay, ref Gaillard et al., 2019; cited from earlier work
[2] = parameters: method as in Gaillard et al., 2019; conditions: lipoplexes with pCMV-Gluc, N/P 3, 1 molar equivalent of DOPE; ref Gaillard et al., 2019; cited from earlier work
A549 cells [3] = tested on: A549 cells; parameters: method as in Gaillard et al., 2019; conditions: A549, 24 h at 37°C, MTT assay; ref Gaillard et al., 2019; cited from earlier work
sheep RBC [4] = conditions: sheep RBC, 37°C, ref Gaillard et al., 2019, cited from earlier work
H292 cells [5] = tested on: H292 cells; parameters: method as in Gaillard et al., 2019; conditions: H292, 24 h at 37°C, MTT assay; ref Gaillard et al., 2019; cited from earlier work
[6] = parameters: method as in Gaillard et al., 2019; conditions: ref Gaillard et al., 2019, cited from earlier work
[7] = parameters: method as in Gaillard et al., 2019; conditions: pyrene fluorescence; ref Gaillard et al., 2019; cited from earlier work
[8] = CMC/CAC by pyrene fluorescent probe technique in ultrapure water; type: physicochemical; conditions: pyrene fluorescence
Method: The pro-APL molecules have been specifically engineered so they can be metabolized in situ under a biological stimulus to revert to the parent APL with antiproliferative activity. […] We thus aimed to determine the self-assembly properties of the APL prodrugs. […] Pyrene is a probe which fluorescence is sensitive to the polarity of the solubilizing medium. […] Fluorescence measurements were carried out in ultrapure water and data obtained for the various APLs and their prodrugs are shown in Table 2.
Pro-APLs Self-Assembly Properties
Starting from a lipid film, compounds were […]

A549 cells [9] = assay: Gene transfer efficiency, pCMV-Gluc luciferase reporter gene assay; type: cell-based, human
Source text: The efficacy of the pro-APLs to mediate intracellular delivery of a plasmid DNA was examined in A549 human lung epithelial carcinoma cells using the pCMV-Gluc reporter gene encoding the luciferase of Gaussia princeps. This luciferase is secreted by cells and transgene expression can be conveniently assessed by standard bioluminescence measurements on aliquots of the cell culture supernatant, without need for prior cell lysis. Lipoplexes were formulated in glucose 5% at N/P ratios of 1, 3, and 5, with increasing amounts of DOPE as a helper lipid. They were deposited onto cells in the presence of 10% serum and luciferase activity was measured after 24 h (Figure 3). […] The influence of the nature of the pendant hydrophobic arm was also examined.
To investigate the effect of serum on the gene delivery properties of the APL prodrugs, cells were treated with lipoplexes in the presence of an increasing concentration of serum (Figure 5). Two DNA doses were considered.
Figure 5 Transfection efficiency of pro-APLs ME12 (A), PE12 (B), and EE12 (C) as a function of serum content. Pro-APL/DNA complexes were prepared at N/P 3, with 1 molar eq. of DOPE. A549 cells (6,000 cells/well) were seeded into 96-well plates in 100 μL of culture medium containing 10% serum. Twenty-four hours later, cell supernatant was replaced with culture medium complemented with increasing amounts of serum (from 10 to 75%) just before adding the lipoplexes (0.2 and 0.4 μg of DNA per well; light and deep purple bars, resp.). Control (light blue bar) refers to basal bioluminescence measured in untreated cells. […] Statistical significance vs. control. ***p < 0.001, **p < 0.01, *p < 0.05.

[10] = Particle size and zeta potential of lipoplexes by DLS; type: physicochemical; conditions: lipoplexes with pCMV-Gluc, 25 °C, 5 % glucose, N/P 3, 1 molar equivalent of DOPE
Source text: The capacity of the pro-APLs to interact electrostatically with nucleic acids and form lipoplexes was checked by standard agarose gel electrophoresis. […] The size (hydrodynamic diameter) and charge (zeta potential, ζ) of the lipoplexes prepared at an N/P ratio of 3 with one molar equivalent of dioleoyl-sn-glycero-3-phosphatidylethanolamine (DOPE), a lipid with fusogenic properties (Hui et al., [1996]; Zuhorn et al., [2005]), were investigated by DLS (Supplementary Table 1).
as measured by DLS. Lipoplexes were prepared at 25 °C, in 5 % glucose, at a N/P ratio of 3 and with
1 molar equivalent of DOPE.
(Gaillard et al., 2019). Data are the mean of three independent measurements (± SD).

A549 cells [11] = assay: Cytotoxicity, MTT assay, A549; type: cell-based, human; conditions: A549, 24 h at 37°C
Method: (§1) The cells were exposed for a 24-h period to increasing concentration of the pro-APLs, ranging from 500 nM to 1 mM, and cell viability was assessed using the MTT colorimetric assay (Mosmann, [1983]). For the three cell lines, viability decreased in a dose-dependent manner in response to APLs and pro-APLs (Supplementary Figures 2–4). Using the best-fit regression curve method, the IC50 value (concentration that provokes 50% inhibition of the cell growth) was calculated for each compound (Table 4). The three cell lines responded to the compounds with varying sensitivities. […] This is attributed to enzyme-mediated hydrolysis of the pro-APL compounds in the complemented culture medium or in the intracellular compartment, competing with pure pH-controlled chemical hydrolysis. According to its structure, a pro-APL may or not be a substrate for specific lipases and, thus, may or not be hydrolyzed into the parent cytotoxic compound. […]
(§2) At confluency, cells were released […]
(§3) Cells were seeded into 96-well plates (Becton-Dickinson) at the required density (vide supra) in 100 µL of serum containing culture medium. […]
(§4) Mitochondrial activity measurements (MTT assay) was used to assess cytotoxicity of the compounds.
(§5) Lipid samples were prepared from a lipid film (3.6 µmol of compound evaporated from an ethanolic solution) hydrated with aqueous glucose 5 % and vigorously vortexed for 20 s before serial dilution in aqueous glucose 5 %. For addition of lipid samples to cell culture, part of the culture medium in the culture plates prepared the day before (25 µL) was removed and replaced by lipid samples (25 µL). Negative control was obtained by adding glucose 5 % to the cells instead of lipoplexes.
(§6) After a 24-h incubation period at 37 °C, culture supernatant was removed, cells were carefully washed with PBS and MTT (100 µL, 0.5 mg/mL) in complete culture medium was added. After a 1-h incubation period at 37 °C, the MTT sol ution was removed and DMSO (100 µL) was added to lyse cells and dissolve reduced MTT. Intensity of MTT reduction was then evaluated by measuring absorbance at 492 nm. Viability of cells treated with lipids or lipoplexes was expressed as the percentage of the absorbance measured in untreated cells. Value for each sample is the mean of triplicate determinations (± SD). IC50 values were determined within the 95 % confidence interval using nonlinear regression analysis with the GraphPad Prism software (GraphPad Software, San […]
(§7) All data are representative of a triplicate determination and are presented as the mean ± SD.
(§8) Statistical significance between treatments was assessed by one-way analysis of variance (ANOVA) followed by the Dunnett multiple comparison test, using the Kaleidagraph 4.5 software (Synergy Software, Reading, PA, USA). Data were considered as statistically significant for p value less than

H292 cells [12] = assay: Cytotoxicity, MTT assay, H292; type: cell-based, human
Method: as §1, §2, §3, §4, §5, §6, §7, §8

16HBE cells [13] = assay: Cytotoxicity, MTT assay, 16HBE; type: cell-based, human; conditions: 24 h at 37°C
Method: as §1, §2, §3, §4, §5, §6, §7, §8

[14] = Hydrolytic stability of the APL prodrugs monitored by 31P-NMR; type: physicochemical
Source text: Aqueous formulation of the APL prodrugs produces nanosized lipid aggregates that most likely enter cells through the endocytosis pathway. To produce the expected intrinsic antineoplastic effect, APL-derived phosphotriesters need to be processed into the bioactive parent APLs. The hydrolysis of the prodrugs may be under the control of a chemical stimulus, e.g., a pH decrease as observed during the maturation of endosomes, or of degradation enzymes that massively enter the endosome compartment when continuing to lysosomes. To get some information on the transformation of pro-APLs into APLs, we monitored the hydrolysis of these compounds over time, at pH 7.4 and 4.5, conditions that mimick the extracellular milieu and the environment of the late endosome, respectively. This monitoring was realized using ^31P-NMR spectroscopy, according to a previously reported method (Pierrat et al., [2013b]). Whatever the compound investigated, only one single ^31P resonance did appear during the course of the experiments, corresponding to that of the parent APL. This confirmed that hydrolysis of the pro-APLs selectively occurred at the acetal center. […] As a general trend, hydrolysis of the pro-APLs was […] under neutral conditions (i.e., pH 7.4) than under acidic ones (i.e., pH 4.5). […] Besides, substitution of one hydrogen atom with a methyl group on the acetal bridge accelerated the rate of hydrolysis of the prodrugs. […] Indeed, in biological media, the enzyme-mediated hydrolysis of such compounds can proceed far quicker than “simple” chemical hydrolysis under pH control (Pierrat et al., [2012]). […]

sheep RBC [15] = assay: Hemolytic activity, red blood cell leakage assay; conditions: 37°C
[16] = Langmuir trough method, cited from earlier work
red blood cells (RBC) = conditions: cited from earlier work
[17] = parameters: method as in Yaseen et al., 2005; conditions: Du Noüy ring method; ref Yaseen et al., 2005; cited from earlier work
[18] = Homo sapiens, NCI-H292, H292, 24 h at 37°C

Row | Compound | IC50 (16HBE cells [1]) [µM] | Particle size of lipoplexes [2] | IC50 (A549 cells [3]) [µM] | HA200 (hemolytic activity at 200 μM) (sheep RBC [4]; 24 h) [%] | IC50 (H292 cells [5]) [µM] | H120 (hydrolysis rate after a 120-h incubation period) ([6]; pH 4.5) [%] | H120 (hydrolysis rate after a 120-h incubation period) ([6]; pH 7.4) [%] | CMC (APLs) / CAC (pro-APLs) [7] [µM] | CMC (APLs) / CAC (pro-APLs) [8] [µM] | HA200 (hemolytic activity at 200 μM) (sheep RBC [4]; 1 h) [%] | IC50 (A549 cells [11]; Homo sapiens) [µM] | HA200 (hemolytic activity at 200 μM) (sheep RBC [15]; 1 h) [%] | IC50 (H292 cells [12]; [18]) [µM] | IC50 (16HBE cells [13]; Homo sapiens) [µM] | also measured
1 | CCCCCCCC/C=C\CCCCCCCCCCCCOP(=O)(OCCC[N+](C)(C)C)OC(C)OC(=O)CCCCCCCCCCC (centres unmarked) [E E^′12] | 63 ± 7 | 149 ± 15 nm | 192 ± 44 | 25.3 ± 2.6 | 73 ± 15 | 53 | 56 | 1.1 ± 0.7 | – | – | – | – | – | – | t1/2 (time needed for 50% hydrolysis) ([6]; pH 4.5): 104 h; t1/2 (time needed for 50% hydrolysis) ([6]; pH 7.4): 96 h
2 | 3-((((((Dodecyloxy)carbonyl)oxy)ethoxy)(hexadecyloxy)phosphoryl)oxy)-N,N,N-trimethylpropan-1-aminium chloride [M C^′12] | – | – | – | – | – | – | – | – | 2.0 ± 0.7 | – | – | – | – | – | Transfection rate relative to MC12 (A549 cells [9]; A549, pCMV-Gluc lipoplexes, 10% serum, 24 h): ca. 2 fold; Particle size of lipoplexes [10]: 91 ± 3 nm; IC50 (A549 cells [11]): 48 ± 15 µM; IC50 (H292 cells [12]; H292, 24 h at 37°C): 146 ± 37 µM; IC50 (16HBE cells [13]): 66 ± 27 µM; H120 (hydrolysis rate after a 120-h incubation period) ([14]; pH 4.5): 13%; H120 (hydrolysis rate after a 120-h incubation period) ([14]; pH 7.4): 14%
3 | CCCCCCCC/C=C\CCCCCCCCCCCCOP(=O)(OCCCCCCCCCCCC)OCCC[N+](C)(C)C (centres unmarked) [Compound E12] | 225 ± 31 | 194 ± 28 nm and 194 nm | 81 ± 7 | 12.0 ± 1.9 | 124 ± 11 | 0 | 0 | 0.7 ± 0.3 | – | 1.9 ± 0.7 | – | – | – | – | Hydrolytic stability after extended incubation ([6]; pH 7.4 and pH 4.5, 31 days): fully stable
4 | CCCCCCCC/C=C\CCCCCCCCCCCCOP(=O)(OCCC[N+](C)(C)C)OCOC(=O)OCCCCCCCC/C=C\CCCCCCCC (centres unmarked) [EC18:1] | 238 ± 58 | 611 ± 12 nm and 611 nm | 326 ± 36 | 20.9 ± 2.5 | 154 ± 40 | 0 | 10 | 0.8 ± 0.4 | – | < 1 | – | – | – | – | –
5 | CCCCCCCCCCCCCCCCCCOP(=O)([O-])OC1CC[N+](C)(C)CC1 [Perifosine, reference compound] | – | – | – | – | – | – | – | – | 4.4 ± 1.7 | – | 127 ± 39 | 85.1 ± 4.0 | 77 ± 3 | 116 ± 33 | CMC (APLs) / CAC (pro-APLs) ([8]; listed as perifosine): 4.4 µM; HC50 (concentration provoking 50% hemolysis) (sheep RBC [15]; 1 h): 46 µM; CMC ([16]; ref Mravljak et al., 2005): 2.5 µM; Hemolysis (red blood cells (RBC); 24-h exposure to 5.4 μM, ref Egler and Lang, 2017): ca. 30%
6 | CCCCCCCCCCCCCCCCOP(=O)(OCC[N+](C)(C)C)OCOC(=O)CCCCCCCCCCC.[Cl-] (centres unmarked) [ME12, 2-((((Dodecanoyloxy)methoxy)(hexadecyloxy)phosphoryl)oxy)-N,N,N-trimethylethan-1-aminium chloride] | – | – | – | – | – | – | – | – | 4.3 ± 2.5 | – | 39 ± 7 | 18.0 ± 1.2 | 52 ± 28 | 69 ± 26 | Serum content up to which significant transgene expression was mediated (A549 cells [9]; A549, N/P 3, 1 eq. DOPE, DNA dose 0.2 μg/well): up to 50 % serum; Serum content up to which transfection activity extended (A549 cells [9]; A549, N/P 3, 1 eq. DOPE, DNA dose 0.4 μg/well): up to 75 % serum; Particle size of lipoplexes [10]: 178 ± 8 nm; HA200 (hemolytic activity at 200 μM) (sheep RBC [15]; 24 h): 103.2 ± 3.6%; H120 (hydrolysis rate after a 120-h incubation period) ([14]; pH 4.5): 3%; H120 (hydrolysis rate after a 120-h incubation period) ([14]; pH 7.4): 20%
7 | CCCCCCCC/C=C\CCCCCCCCCCCCOP(=O)(OCCC[N+](C)(C)C)OC(C)OC(=O)OCCCCCCCCCCCC (centres unmarked) [E C^′12] | 257 ± 81 | 92 ± 10 nm | 179 ± 63 | 7.3 ± 0.8 | 161 ± 25 | 5 | 6 | 0.9 ± 0.2 | – | < 1 | – | – | – | – | –
8 | CCCCCCCCCCCCCCCCOP(=O)([O-])OCC[N+](C)(C)C [Miltefosine, reference compound] | – | – | – | – | – | – | – | – | 11.2 ± 2.3 | – | 77 ± 15 | 90.8 ± 1.5 | 70 ± 9 | 73 ± 8 | CMC (APLs) / CAC (pro-APLs) ([8]; listed as miltefosine): 11.2 µM; CMC [17]: 12 µM; HC50 (concentration provoking 50% hemolysis) (sheep RBC [15]; 1 h): 43 µM; CMC ([16]; ref Rakotomanga et al., 2004): 2.5 to 3.0 µM; HC50 (red blood cells (RBC); depending on the hematocrit, ref Alonso and Alonso, 2016): 34 to 51 µM; HC50 (red blood cells (RBC); ref Petit et al., 2019): 41 µM
